≈ marks a conversion by molar mass, not a printed value.
Tests used:
Type in all cases: cell-based
E. faecalis = test: MIC values, E. faecalis (Tables 1-4)
H. flu = test system: H. flu
S. aureus = test: MIC values, S. aureus (Tables 1-4)
S. pneumo. = test: MIC values, S. pneumo. (Tables 1-4)
E. coli = test: MIC values, E. coli (Tables 1-4)

Compound | MIC E. faecalis (E. faecalis) | MIC H. flu (H. flu) | MIC S. aureus (S. aureus) | MIC S. pneumo. (S. pneumo.) | MIC E. coli (E. coli)
CO[C@H]1/C=C/O[C@@]2(C)Oc3c(C)c(O)c4c(=O)c(c5oc6cc(N7CCC(NC(=O)OC(C)C)CC7)cc(O)c6nc-5c4c3C2=O)NC(=O)/C(C)=C\C=C\[C@H](C)[C@H](O)[C@@H](C)[C@@H](O)[C@@H](C)[C@H](O)[C@@H]1C [Compound 29] | 2000 ng/mL (≈ 2120 nM) | 1000 ng/mL (≈ 1060 nM) | 8 ng/mL (≈ 8.48 nM) | 0.12 ng/mL (≈ 0.127 nM) | >8000 ng/mL
COC(=O)NC1CCN(c2cc(O)c3nc4c5c6c7c(C)c(O)c5c(=O)c(c-4oc3c2)NC(=O)/C(C)=C\C=C\[C@H](C)[C@H](O)[C@@H](C)[C@@H](O)[C@@H](C)[C@H](O)[C@H](C)[C@@H](OC)/C=C/O[C@@](C)(O7)C6=O)CC1 [Compound 30] | 1000 ng/mL (≈ 1090 nM) | 500 ng/mL (≈ 546 nM) | 15 ng/mL (≈ 16.4 nM) | 2 ng/mL (≈ 2.19 nM) | >8000 ng/mL
CCOC(=O)NC1CCN(c2ccc3nc4c5c6c7c(C)c(O)c5c(=O)c(c-4n(C)c3c2)NC(=O)/C(C)=C\C=C\[C@H](C)[C@H](O)[C@@H](C)[C@@H](O)[C@@H](C)[C@H](O)[C@H](C)[C@@H](OC)/C=C/O[C@@](C)(O7)C6=O)CC1 [Compound 31] | 250 ng/mL (≈ 270 nM) | 250 ng/mL (≈ 270 nM) | 30 ng/mL (≈ 32.4 nM) | 0.5 ng/mL (≈ 0.54 nM) | 8000 ng/mL (≈ 8640 nM)
COC(=O)NC1CCN(c2cc(O)c3nc4c5c6c7c(C)c(O)c5c(=O)c(c-4oc3c2)NC(=O)/C(C)=C\C=C\[C@H](C)[C@H](O)[C@@H](C)[C@@H](O)[C@@H](C)[C@H](OC(C)=O)[C@H](C)[C@@H](OC)/C=C/O[C@@](C)(O7)C6=O)CC1 [Compound 32] | >8000 ng/mL | >8000 ng/mL | 2000 ng/mL (≈ 2090 nM) | 4000 ng/mL (≈ 4180 nM) | >8000 ng/mL
CO[C@H]1/C=C/O[C@@]2(C)Oc3c(C)c(O)c4c(=O)c(c5oc6cc(N7CCC(N)CC7)cc(O)c6nc-5c4c3C2=O)NC(=O)/C(C)=C\C=C\[C@H](C)[C@H](O)[C@@H](C)[C@@H](O)[C@@H](C)[C@H](OC(C)=O)[C@@H]1C [Compound 33] | 1000 ng/mL (≈ 1110 nM) | 1000 ng/mL (≈ 1110 nM) | 8 ng/mL (≈ 8.9 nM) | 0.06 ng/mL (≈ 0.0667 nM) | >8000 ng/mL
CCNC(=O)NC1CCN(c2cc(O)c3nc4c5c6c7c(C)c(O)c5c(=O)c(c-4oc3c2)NC(=O)/C(C)=C\C=C\[C@H](C)[C@H](O)[C@@H](C)[C@@H](O)[C@@H](C)[C@H](OC(C)=O)[C@H](C)[C@@H](OC)/C=C/O[C@@](C)(O7)C6=O)CC1 [Compound 34] | 2000 ng/mL (≈ 2060 nM) | 500 ng/mL (≈ 515 nM) | 30 ng/mL (≈ 30.9 nM) | 1 ng/mL (≈ 1.03 nM) | 8000 ng/mL (≈ 8250 nM)
CCCS(=O)(=O)NC1CCN(c2cc(O)c3nc4c5c6c7c(C)c(O)c5c(=O)c(c-4oc3c2)NC(=O)/C(C)=C\C=C\[C@H](C)[C@H](O)[C@@H](C)[C@@H](O)[C@@H](C)[C@H](OC(C)=O)[C@H](C)[C@@H](OC)/C=C/O[C@@](C)(O7)C6=O)CC1 [Compound 35] | 4000 ng/mL (≈ 3980 nM) | 500 ng/mL (≈ 497 nM) | 15 ng/mL (≈ 14.9 nM) | 0.25 ng/mL (≈ 0.249 nM) | 8000 ng/mL (≈ 7960 nM)
CCCC(=O)NC1CCN(c2cc(O)c3nc4c5c6c7c(C)c(O)c5c(=O)c(c-4oc3c2)NC(=O)/C(C)=C\C=C\[C@H](C)[C@H](O)[C@@H](C)[C@@H](O)[C@@H](C)[C@H](O)[C@H](C)[C@@H](OC)/C=C/O[C@@](C)(O7)C6=O)CC1 [Compound 36] | 2000 ng/mL (≈ 2160 nM) | 250 ng/mL (≈ 270 nM) | 4 ng/mL (≈ 4.31 nM) | 0.03 ng/mL (≈ 0.0324 nM) | >8000 ng/mL
CCNC(=O)NC1CCN(c2cc(O)c3nc4c5c6c7c(C)c(O)c5c(=O)c(c-4oc3c2)NC(=O)/C(C)=C\C=C\[C@H](C)[C@H](O)[C@@H](C)[C@@H](O)[C@@H](C)[C@H](O)[C@H](C)[C@@H](OC)/C=C/O[C@@](C)(O7)C6=O)CC1 [Compound 37] | 2000 ng/mL (≈ 2160 nM) | 250 ng/mL (≈ 269 nM) | 30 ng/mL (≈ 32.3 nM) | 4 ng/mL (≈ 4.31 nM) | >8000 ng/mL
CO[C@H]1/C=C/O[C@@]2(C)Oc3c(C)c(O)c4c(=O)c(c5oc6cc(N7CCC(NS(=O)(=O)C(F)(F)F)CC7)cc(O)c6nc-5c4c3C2=O)NC(=O)/C(C)=C\C=C\[C@H](C)[C@H](O)[C@@H](C)[C@@H](O)[C@@H](C)[C@H](O)[C@@H]1C [Compound 38] | 8000 ng/mL (≈ 8090 nM) | 250 ng/mL (≈ 253 nM) | 120 ng/mL (≈ 121 nM) | 15 ng/mL (≈ 15.2 nM) | >8000 ng/mL
CO[C@H]1/C=C/O[C@@]2(C)Oc3c(C)c(O)c4c(=O)c(c5oc6cc(N7CCC(N)CC7)cc(O)c6nc-5c4c3C2=O)NC(=O)/C(C)=C\C=C\[C@H](C)[C@H](O)[C@@H](C)[C@@H](O)[C@@H](C)[C@H](O)[C@@H]1C [Compound 39] | 2000 ng/mL (≈ 2330 nM) | 250 ng/mL (≈ 292 nM) | 30 ng/mL (≈ 35 nM) | 1 ng/mL (≈ 1.17 nM) | >8000 ng/mL
CCOC(=O)N1CCCC2CN(c3cc(O)c4nc5c6c7c8c(C)c(O)c6c(=O)c(c-5oc4c3)NC(=O)C(C)=CC=CC(C)C(O)C(C)C(O)C(C)C(OC(C)=O)C(C)C(OC)C=COC(C)(O8)C7=O)CC21 (centres unmarked) [Compound 40] | 1000 ng/mL (≈ 1000 nM) | 500 ng/mL (≈ 501 nM) | 60 ng/mL (≈ 60.2 nM) | 8 ng/mL (≈ 8.02 nM) | >8000 ng/mL
COCCOC(=O)NC1CCN(c2cc(O)c3nc4c5c6c7c(C)c(O)c5c(=O)c(c-4oc3c2)NC(=O)/C(C)=C\C=C\[C@H](C)[C@H](O)[C@@H](C)[C@@H](O)[C@@H](C)[C@H](OC(C)=O)[C@H](C)[C@@H](OC)/C=C/O[C@@](C)(O7)C6=O)CC1 [Compound 41] | >8000 ng/mL | 2000 ng/mL (≈ 2000 nM) | 250 ng/mL (≈ 250 nM) | 0.5 ng/mL (≈ 0.499 nM) | >8000 ng/mL
CCOC(=O)N1CCCC2CN(c3cc(O)c4nc5c6c7c8c(C)c(O)c6c(=O)c(c-5oc4c3)NC(=O)C(C)=CC=CC(C)C(O)C(C)C(O)C(C)C(O)C(C)C(OC)C=COC(C)(O8)C7=O)CC21 (centres unmarked) [Compound 42] | 2000 ng/mL (≈ 2090 nM) | 500 ng/mL (≈ 524 nM) | 8 ng/mL (≈ 8.38 nM) | 0.12 ng/mL (≈ 0.126 nM) | 8000 ng/mL (≈ 8380 nM)
CO[C@H]1/C=C/O[C@@]2(C)Oc3c(C)c(O)c4c(=O)c(c5oc6cc(N7CCC(NC(C)=O)CC7)cc(O)c6nc-5c4c3C2=O)NC(=O)/C(C)=C\C=C\[C@H](C)[C@H](O)[C@@H](C)[C@@H](O)[C@@H](C)[C@H](O)[C@@H]1C [Compound 43] | 2000 ng/mL (≈ 2220 nM) | 500 ng/mL (≈ 556 nM) | 30 ng/mL (≈ 33.4 nM) | 2 ng/mL (≈ 2.22 nM) | >8000 ng/mL
CO[C@H]1/C=C/O[C@@]2(C)Oc3c(C)c(O)c4c(=O)c(c5oc6cc(N7CCC(NC(C)=O)CC7)cc(O)c6nc-5c4c3C2=O)NC(=O)/C(C)=C\C=C\[C@H](C)[C@H](O)[C@@H](C)[C@@H](O)[C@@H](C)[C@H](OC(C)=O)[C@@H]1C [Compound 44] | 2000 ng/mL (≈ 2130 nM) | 250 ng/mL (≈ 266 nM) | 60 ng/mL (≈ 63.8 nM) | 8 ng/mL (≈ 8.5 nM) | >8000 ng/mL
CO[C@H]1/C=C/O[C@@]2(C)Oc3c(C)c(O)c4c(=O)c(c5oc6cc(N7CCC(NC(=O)SC)CC7)cc(O)c6nc-5c4c3C2=O)NC(=O)/C(C)=C\C=C\[C@H](C)[C@H](O)[C@@H](C)[C@@H](O)[C@@H](C)[C@H](OC(C)=O)[C@@H]1C [Compound 45] | 4000 ng/mL (≈ 4110 nM) | 500 ng/mL (≈ 514 nM) | 15 ng/mL (≈ 15.4 nM) | 1 ng/mL (≈ 1.03 nM) | 8000 ng/mL (≈ 8220 nM)
COC1C=COC2(C)Oc3c(C)c(O)c4c(=O)c(c5oc6cc(N7CC8CCCN(C(C)=O)C8C7)cc(O)c6nc-5c4c3C2=O)NC(=O)C(C)=CC=CC(C)C(O)C(C)C(O)C(C)C(O)C1C (centres unmarked) [Compound 46] | 2000 ng/mL (≈ 2160 nM) | 500 ng/mL (≈ 541 nM) | 4 ng/mL (≈ 4.32 nM) | 0.06 ng/mL (≈ 0.0649 nM) | >8000 ng/mL
COC1C=COC2(C)Oc3c(C)c(O)c4c(=O)c(c5oc6cc(N7CC8CCCN(C(C)=O)C8C7)cc(O)c6nc-5c4c3C2=O)NC(=O)C(C)=CC=CC(C)C(O)C(C)C(O)C(C)C(OC(C)=O)C1C (centres unmarked) [Compound 47] | 1000 ng/mL (≈ 1030 nM) | 250 ng/mL (≈ 259 nM) | 8 ng/mL (≈ 8.27 nM) | 2 ng/mL (≈ 2.07 nM) | >8000 ng/mL
CO[C@H]1/C=C/O[C@@]2(C)Oc3c(C)c(O)c4c(=O)c(c5oc6cc(N7CCC(NC(=O)OC(C)(C)C)CC7)cc(O)c6nc-5c4c3C2=O)NC(=O)/C(C)=C\C=C\[C@H](C)[C@H](O)[C@@H](C)[C@@H](O)[C@@H](C)[C@H](OC(C)=O)[C@@H]1C [Compound 48] | 2000 ng/mL (≈ 2000 nM) | 1000 ng/mL (≈ 1000 nM) | 8 ng/mL (≈ 8.01 nM) | 0.25 ng/mL (≈ 0.25 nM) | >8000 ng/mL
CO[C@H]1/C=C/O[C@@]2(C)Oc3c(C)c(O)c4c(=O)c(c5oc6cc(N7CCC(NC(=O)N8CCC(NC(=O)SC)CC8)CC7)cc(O)c6nc-5c4c3C2=O)NC(=O)/C(C)=C\C=C\[C@H](C)[C@H](O)[C@@H](C)[C@@H](O)[C@@H](C)[C@H](OC(C)=O)[C@@H]1C [Compound 49] | 8000 ng/mL (≈ 7280 nM) | 2000 ng/mL (≈ 1820 nM) | 60 ng/mL (≈ 54.6 nM) | 0.5 ng/mL (≈ 0.455 nM) | >8000 ng/mL
CO[C@H]1/C=C/O[C@@]2(C)Oc3c(C)c(O)c4c(=O)c(c5oc6cc(N7CCC(NC(=O)N8CCN(C)CC8)CC7)cc(O)c6nc-5c4c3C2=O)NC(=O)/C(C)=C\C=C\[C@H](C)[C@H](O)[C@@H](C)[C@@H](O)[C@@H](C)[C@H](OC(C)=O)[C@@H]1C [Compound 50] | 4000 ng/mL (≈ 3900 nM) | 500 ng/mL (≈ 488 nM) | 30 ng/mL (≈ 29.3 nM) | 0.12 ng/mL (≈ 0.117 nM) | >8000 ng/mL
